{"source": "patent EP2444091B1", "about": "“USE OF T[…] MELIA AZEDARACH EXTRACTS FOR PREVENTING OR TREATING DEMENTIA” (Ildong Pharm Co., Ltd., priority 2009, dated 2010)", "key": {"[1]": {"tested_on": "APPα and APPβ (APP metabolites)", "assay": "APPα and APPβ production in culture medium by western blot, BA-3 cell line overexpressing BACE1 and APP695", "assay_type": "cell-based", "description": "A HEK293-derived BA-3 cell line overexpressing BACE1(β-secretase) and APP695 was plated on 6-well plate by using DMEM (Dulbecco's Modified Eagle's Medium) including 10% fetal bovin serum (FBS) in such a manner that it occupied 80% or more of the area in each well, and then was cultured for 1 day. After the removal of the culture medium, free DMEM (not including fetal bovine serum) was heated to 37°C, and added in an amount of 0.9ml to each well. Then, toosendanin or a toosendan fructus fraction extracted with each solvent was diluted to an appropriate concentration by 0.1ml free DMEM, and the cell line was treated with these materials, and cultured for 24 hours. 0.2ml of the culture medium treated with each test sample was collected, and subjected to electrophoresis by 8% SDS-PAGE (polyacrylamide gel electrophoresis). Then, AB1560(monoclonal) and Rb53(polyclonal) antibodies (antibodies against APPα and APPβ) were used to measure the amounts of APPα and APPβ within the culture medium through western blotting.\nExtracts (ethyl alcohol, methanol, ethyl acetate, and 90% methanol) of meliae cortex (bark of chinaberry) were obtained under the same organic solvent extraction condition of toosendan fructus. Then, their effects on APPβ production reduction were tested.\nOn the toosendan fructus ethyl alcohol extract obtained from Example 9-1, an APPβ production reducing effect, an APPα production promoting effect, and an Aβ production inhibiting effect were measured in the same manner as described in Example 5."}, "[2]": {"tested_on": "Aβ40", "assay": "Aβ40 quantification in rat serum before/after oral administration", "assay_type": "in vivo", "conditions": "5mg/kg oral, blood after two hours", "description": "Before administration of toosendanin, blood was secured. Then, toosendanin suspended in 20% ethyl alcohol was orally administered in doses of 5 and 50mg/kg. After two hours, the blood was collected, and the concentration change of Aβ within the blood before/after administration was measured. The collected blood was centrifuged (16,000×g, 20 minutes, 4°C), and Aβ40 within the collected serum was quantified by using an Aβ40 quantitative analysis kit (Mouse/Rat Amyloidβ (1-40) High Specific Assay Kit, IBL, Japan)."}, "[3]": {"conditions": "concentration of 12.5nM or less"}}, "data": [{"molecule": "CC(=O)O[C@@H]1C[C@H](O)[C@@]23CO[C@@H](O)[C@]1(C)[C@@H]2C[C@@H](O)[C@]1(C)[C@@H]3C(=O)[C@H](OC(C)=O)[C@@]2(C)[C@H](c3ccoc3)C[C@H]3O[C@]321", "note": "[toosendanin]", "values": [{"measurement": "production of APPα with respect to a non-treated group", "setting": "[1]; at 0.8uM, 24 hours", "result": 141.5, "unit": "%"}, {"measurement": "production of APPβ with respect to a non-treated group", "setting": "[1]; at 0.8uM, 24 hours", "result": 17.8, "unit": "%"}, {"measurement": "production of APPα", "setting": "[1]; [3]", "result": "promoting the production of APPα"}, {"measurement": "production of APPβ", "setting": "[1]; [3]", "result": "inhibited the production of APPβ"}, {"measurement": "inhibition of Aβ40 in serum", "setting": "[2]", "result": "≥ 85", "unit": "%"}]}]}
